For assay [1], the target named is T1, Motilin Receptor (Oryctolagus cuniculus, UniProt G1T803).
T1 construct: strips of longitudinal smooth muscle were sliced from the segments; from tissue; host or cells: rabbit duodenum longitudinal smooth muscle strips
Kind of assay: Tissue based assay for motilin agonist potency (rabbit duodenum contractility). The format is cell-based. Put shortly: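 Longitudinal smooth-muscle strips of rabbit duodenum, mucosa removed, in oxygenated Krebs at 37 °C under 1.5 g tension; auxotonic contractions. Cumulative doses at ~2 min intervals, then 1 μM carbachol; responses minus basal tension, normalized to carbachol, fitted to R=(Rmax·C)/(EC50+C) for EC50.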

In assay [2] the test system is Streptococcus pneumoniae ATCC 6301. Nature of the assay: Evaluation of antibacterial activity (MIC, serial dilutions on 96-well microtiter plates). Particulars: ATCC6301, read-out: Antibacterial Activity (MIC, μg/mL). Type of assay: cell-based.
[3] abbreviates: rabbit duodenum strips, contraction normalized to 1 μM carbachol, read-out: Motilin Receptor Agonist Activity (EC50).

This passage reports EC50 and MIC results from US7582611B2, “Motilide compounds” (Pfizer Inc., priority 2005, dated 2009).

As a reminder, the EC50 is the midpoint of the concentration-response curve.

Molecules are shown by their SMILES. Converted amounts (≈) assume the structure as drawn. Where two headings read alike, the source gives them in different places.

T1 sequence (G1T803 1-400): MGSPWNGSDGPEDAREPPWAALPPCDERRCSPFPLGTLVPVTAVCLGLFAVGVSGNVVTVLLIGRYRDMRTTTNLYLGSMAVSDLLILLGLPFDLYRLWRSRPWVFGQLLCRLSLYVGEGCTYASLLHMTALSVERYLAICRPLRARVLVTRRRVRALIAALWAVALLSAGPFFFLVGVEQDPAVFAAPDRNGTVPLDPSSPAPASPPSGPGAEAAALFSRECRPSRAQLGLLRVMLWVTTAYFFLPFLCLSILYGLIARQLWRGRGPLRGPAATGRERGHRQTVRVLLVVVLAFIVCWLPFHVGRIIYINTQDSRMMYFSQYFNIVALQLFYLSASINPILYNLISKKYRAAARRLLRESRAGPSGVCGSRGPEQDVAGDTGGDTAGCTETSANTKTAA

As to `CC[C@H]1OC(=O)[C@H](C)[C@@H](O[C@H]2C[C@@](C)(OC)[C@@H](O)[C@H](C)O2)[C@H](C)[C@@H](O[C@@H]2O[C@H](C)C[C@H](N(C)C(C)C)[C@H]2O)[C@](C)(O)C[C@@H](C)[C@H](OCC(=O)Nc2ccncn2)[C@H](C)[C@@H](O)[C@]1(C)O` [Compound A-77], the EC50 in assay [1] (setting [3]) was 25 nM. Besides, the MIC in assay [2] is greater than 128 µg/mL.
On to `CC[C@H]1OC(=O)[C@H](C)[C@@H](O[C@H]2C[C@@](C)(OC)[C@@H](O)[C@H](C)O2)[C@H](C)[C@@H](O[C@@H]2O[C@H](C)C[C@H](N(C)C)[C@H]2O)[C@](C)(O)C[C@@H](C)C(=O)[C@H](C)[C@@H](O)[C@]1(C)O` [Erythromycin A, reference compound], for which the EC50 in assay [1] came to 1200 nM. Besides, the MIC in assay [2] came out at 0.0025 µg/mL (≈ 0.00341 µM).
With `CC[C@H]1OC(=O)[C@H](C)[C@@H](O[C@H]2C[C@@](C)(OC)[C@@H](O)[C@H](C)O2)[C@H](C)[C@@H](O[C@@H]2O[C@H](C)C[C@H](N(C)C(C)C)[C@H]2O)[C@@]2(C)CC(C)=C(O2)[C@H](C)C(=O)[C@]1(C)OC` [GM-611, reference compound], the EC50 in assay [1] (setting [3]) is 11 nM. Moreover, the MIC in assay [2] stood at 128 µg/mL (≈ 169 µM).
For `CC[C@@H](O)[C@@](C)(O)[C@@H]1OC(=O)[C@@H](C)[C@H](C[C@H]2C[C@@](C)(OC)[C@@H](O)[C@H](C)O2)[C@H](C)[C@@H](OC2O[C@H](C)C[C@H](N(C)C(C)C)[C@H]2O)[C@@]2(C)CC(C)=C(O2)[C@@H]1C` (some centres unmarked) [KC-11458, reference compound], in assay [1] (setting [3]), the EC50 was determined as 45 nM. Besides, the MIC in assay [2] was greater than 128 µg/mL.
